According to patent US20030166511A1, “Cardioprotective composition comprising ceruloplasmin and uses thereof” (GESTILAB INC., priority 1999, published 2003):
Read-outs that look alike come from different tables or passages of the source.

Legend:
[1] = cited from earlier work; for concentrations ensuring good antioxidative activity in vitro: in vitro (Atanasiu et al., 1998)
[2] = system: ischemic isolated rat heart; assay: Reperfusion-induced irreversible ventricular fibrillation in isolated rat heart submitted to partial ischemia-reperfusion (Langendorff); conditions: TRIAD (S2) 0.16×, CP 0.5 μM
Procedure: All experiments were conformed to rules of the Guide for the care and use of laboratory animals published by the US National Institutes of Health (NIH publication No 85-23, revised 1985). Adult male Wistar rats (225-250 g) were anaesthetized with sodium pentobarbitone intra-peritoneally (0.1 ml/100 g body weight) and then heparinized (500 UI intra-peritoneally). […]
Hearts were perfused for a 10 min control period with KH buffer, and then […] with KH+TRIAD for stabilization. […] At the end of this 10 min arterial occlusion period, reperfusion was initiated by cutting the ligature with a scalpel bled and rhythm disturbances were monitored for 15 min more. Left ventricular pressure and epicardial ECG were continuously monitored before and during ischemia and reperfusion. […]
Rat hearts were first perfused for 10 min with KH buffer and then for another 10 min with the same buffer containing TRIAD (S2) prepared as described above (section 2.2), until equilibration of cardiodynamic variables was achieved. […] Left ventricular pressure and epicardial ECG were continuously monitored before and during ischemia and reperfusion. […]
Arrhythmia were defined according to the Lambeth convention (Walker et al., 1988). ECG recordings were analyzed for the incidence of irreversible ventricular fibrillation (IVF) and for the time of normal sinus. […]

[3] = system: isolated rat hearts; conditions: isolated rat heart, blood-free model (Chahine et al., 1991; Atanasiu et al, 1995), cited from earlier work
[4] = conditions without oxidative stress (Atanasiu et al, 1996); cited from earlier work

| Substance | concentrations ensuring good antioxidative activity in vitro [1] [µM] | incidence of reperfusion-induced irreversible ventricular fibrillation (IVF) ([2]; isolated rat heart, 10 min regional ischemia then reperfusion, control 100%) [%] | cardioprotection ([2]; reduction of IVF incidence versus control (100%)) [%] | scavenging capacity compared with other antioxidants ([1]; in vitro, β-phycocyanin indicator) | cardioprotective concentrations [3] | cardiotoxic concentration [3] [µM] | cardiotoxic concentration ([3]; listed as Ceruloplasmin) [µM] | electrophysiological effect [4] |
| --- | --- | --- | --- | --- | --- | --- | --- | --- |
| Albumin [reference compound] | 260 | – | – | – | – | – | – | – |
| Ceruloplasmin [CP] | 2 to 15 | 75 | 25 | better scavenging capacity than SOD and than deferoxamine | up to 2 μM | ≥ 4 | 4 | prolongation of Effective Refractory Period (ERP) and of the action potential (AP) |
